The values below come from patent publication US7388124B2 (priority 2001, dated 2008).

Where “and” joins values, the source holds several entries; their conditions need not be identical. Equal entries are not always repeated. Entries after “also recorded” stand apart in the source; their conditions may differ. Where two headings read alike, the source gives them in different places.

Test [1] deals with rat pain model variants. In words: Mechanical hyperalgesia (pinprick) in rat pain model variants. Conditions: for Pinprick # STIMULATIONS POST-ANALGESIC: of 6; for Pinprick # STIMULATIONS POST-ANALGESIC, Total: total of 5 rats, pre total 30; for Post Avg, Average Positive stimulations out of 6 total, Stim PP Pin Prick: n=12 rats. Format: in vivo, Sprague Dawley rats. The protocol: (§1) The methods of preparation and testing were similar for all the variant pain models described in this example. Male Sprague Dawley rats initially weighing between 150 and 175 grams were housed singly. Baseline behaviors to stimulations of the paw on which the procedure was to be performed were recorded over several sessions after accommodation of 3-4 days, and the results were averaged and used as the baseline control data. The pain behaviors studied were static mechanical allodynia (e.g., light touch stimulation with von Frey fibers 4.56, 4.73, 4.93, and/or 5.07), dynamic mechanical allodynia (e.g., stimulation with moving camel hair brush), and/or mechanical hyperalgesia (e.g., pinprick stimulation).
(§2) After the baseline control data was collected, the specified procedure with a gel was performed near the chosen nerve of each variant group (see Tables 2-6 and 8-10), then the rats were tested post procedurally and intermittently for up to 77 days for behavioral changes (see Tables 2-6 and 8-11) and for their responses to substances with analgesic properties (see Tables 7 and 12).
(§3) The stimuli used to elicit pain behavior were the von Frey fibers, camel hair brush and pinprick, with 6 stimulations of each stimulus. Each variant pain model had the same sequence of stimuli with the positive responses averaged and a student T-test performed for the significance of the post procedural responses as compared to the baseline control data (see Tables 2-6 and 11); and for the post-analgesic responses as compared to the pre-analgesic behavioral data (see Tables 7 and 12).
(§4) The tunnels identified by the above studies were then used for the placement of the biocompatible gels by the chosen peripheral nerves. The gelatinous or viscous substances (i.e., the gels) placed by the peripheral nerves or nerve roots contained collagen (e.g., AVITENE® and gelatin) or hydrogels. The “collagen gel” used in the present study was composed of 0.8 grams of collagen as AVITENE® (microfibrillar collagen hemostat flour, Davol Inc., Cranston, R.I. 02920) and 0.7 grams of collagen as gelatin (Knox gelatin, Kraft Foods, Northfield, Ill. 60093) mixed with 14 cc of normal saline until homogenous. Then the collagen mixture was placed in a PYREX® bowl resting in a paper bowl and covered with a ceramic saucer, then heated for 20 seconds at full power in a microwave. The resulting viscous mixture was kept fluid in a warm water bath at 100-110° F., until used for the placement procedure. The wound hydrogels used in the present study were two types: one contains alginate (SAF-Gel® from ConvaTec of E. R. Squibb & Sons, Princeton, N.J.) and the other contains acemannan from Aloe vera L. (Carrasyn®V from Carrington Laboratories, Irving, Tex.). […] Such hydrogels are used in the care of open dermal wounds as well as in first and second degree burns since they provide a closed moist environment for wound healing.
(§5) The rats were anesthesized with 1.5% to 2% isoflurane for the percutaneous kinesthetic placement of the above “gels” by the specified nerves. Using an angled 23 gauge thin wall 1″ needle, approximately 0.1 cc-0.2 cc of gel was placed percutaneously with kinesthetic technique in the anatomically defined fascial tunnels of the chosen peripheral nerves as described below.
(§6) The doses were given intraperitoneally (I.P.) and behavioral stimulus testing began 40-80 minutes after the dose. The student's t-test (p<0.05) was performed for determining the significance of changes in behaviors associated with pain after the analgesic was administered.

In test [2] the test system is rat pain model variants. In words: Dynamic mechanical allodynia (camel hair brush) in rat pain model variants. The format is in vivo, Sprague Dawley rats. Conditions: n=12 rats. The protocol: as §1, §2, §3
The tunnels identified by the above studies were then used for the placement of the biocompatible gels by the chosen peripheral nerves. The gelatinous or viscous substances (i.e., the gels) placed by the peripheral nerves or nerve roots contained collagen (e.g., AVITENE® and gelatin) or hydrogels. […]

The test system of test [3] is rat pain model variants. The format is in vivo, Sprague Dawley rats. The following applies: for von Frey F 4.93 # ST[…]-ANALGESIC: of 6. Here is the method: Male Sprague Dawley rats initially weighing between 150 and 175 grams were housed singly. […] The pain behaviors studied were static mechanical allodynia (e.g., light touch stimulation with von Frey fibers 4.56, 4.73, 4.93, and/or 5.07), dynamic mechanical allodynia (e.g., stimulation with moving camel hair brush), and/or mechanical hyperalgesia (e.g., pinprick stimulation).
as §2
The stimuli used to elicit pain behavior were the von Frey fibers, camel hair brush and pinprick, with 6 stimulations of each stimulus.
as §4, §5, §6

In test [4] the test system is rat pain model variants. In words: Analgesic effect in rat neurogenic pain model variants (overall statement). The format is in vivo, Sprague Dawley rats. Here is the method:
as §1, §2, §3, §4, §5, §6

Test [5] has as its system open surgical rat model for CRPS I. Conditions: prior art surgical model, Reyna et al. 1999; cited from earlier work.
The test system of test [6] is Mice with Neural Compression. In words: von Frey fiber and camel hair brush testing for mechanical allodynia in mice with collagen placed by the posterior tibial nerve. Conditions: for Average # Paw Withdrawals: of 10 stimulations, n=10 mice. Format: in vivo. The protocol:
Biocompatible collagen was prepared for use in the present study. The collagen source was dry gelatin that was prepared using sterile techniques. The dry collagen was measured to 2.5 grams and mixed with 7.5 cc of sterile normal saline. The mixture was heated for 30 seconds in a microwave on 80% power, The mixture was kept soft in warm water (approximately 100 to 110 degrees).
The consistency of the resulting warm collagen was such that it was able to pass through a 23 gauge needle. Humidity and other factors such as temperature can affect the consistency of the substance. 1-cc syringes were used for injection of 0.2 to 0.25 cc of collagen. For the injection, 23 gauge 1″ standard luer lock hypodermic needles were used. The needles were very slightly dulled with a metal file at the tip and edges using sterile technique. The needles were angled at the midpoint with a bevel tip up. The angle was between 30 and 45 degrees, but any angle that allows for easy placement of the injected substance could be used. The needles were then attached to the collagen-filled one cc syringes. The syringes were kept in a warm water bath (100 to 110° F.) to maintain proper gel consistency.
The mice were lightly anesthetized with 1.5 to 2% isoflurane. The mice were then stabilized and aligned such that the left posterior leg was in view. The external anatomic landmarks of the posterior popliteal area were identified. The internal anatomy of this area including the posterior tibial nerve with its artery was mentally visualized with kinesthetic techniques. Kinesthetic techniques are methods that use the kinesthetic sense or the integration of the senses by which movement, mass, turgor, shape, resistance, elasticity, temperature, spatial relationships and position are commonly perceived. It also refers to the integrated use of multiple senses such as touch, proprioception, vision, and hearing. After location of the site for placement of the gel, the needle and syringe were then removed from the warm water bath. The distal portion of the needle was held loosely parallel to the tibia. The needle was allowed to gently penetrate through the dermis by pulling the skin taut over the popliteal fossa. With careful avoidance of tissue resistance, the needle tip, bevel up, was gently slipped beneath the fascial edge of the soleus muscle by the tibial nerve and artery into the deep posterior fascial compartment of the posterior tibial neurovascular tunnel, which is the neurovascular tunnel for the posterior tibial nerve and its proximal branches. When the tip of the needle was at the mid soleus muscle belly, the collagen mixture was slowly injected into the posterior tibial tunnel. The needle was removed and the animals allowed to recover from the anesthetic. All animals were normally moving freely within 20 minutes of anesthesia withdrawal.
Two days after placement of the collagen gel around the nerve, von Frey testing was again performed. Von Frey testing continued for 49 days. […]

The mark [7] stands for this setting: Ethosuximide 100 mg/kg IP, 1 rat tibial n. with Acemann hydrogel, pre 6.
Where [8] appears, read: Ethosuximide 100 mg/kg IP, 1 rat tibial n. with Alginate hydrogel, pre 6.

For `CCC1(C)CC(=O)NC1=O` (stereo not drawn) [Ethosuximide, ethosuximide], the “Pinprick # STIMULATIONS POST-ANALGESIC” value in the test with rat pain model variants [1] (Ethosuximide 100 mg/kg IP, 1 rat saphenous n. with Avitene collagen, pre 6) is 1; with rat pain model variants [1] (setting [7]) it was 0; in the test with rat pain model variants [1] (setting [8]), 2; with rat pain model variants [1] (Ethosuximide 100 mg/kg IP, single rats sciatic n. with Alginate hydrogel (two rats, pre 6 and 6)), 0 and 1. For the same compound, the “Pinprick # STIMULATIONS POST-ANALGESIC, Total” value in the test on rat pain model variants [1] (Ethosuximide 100 mg/kg IP, pre vs post p=1.6E-4) is listed as 4. Besides, in the test with rat pain model variants [1] (Ethosuximide 200 mg/kg (IP), Pre Avg 5.25, p=1.4E-8), the “Post Avg, Average Positive stimulations out of 6 total, Stim PP Pin Prick” value stood at 1.75. Moreover, the “Post Avg, Average Positive stimulations out of 6 total, Stim S Brush” value in the test with rat pain model variants [2] (Ethosuximide 200 mg/kg (IP), Pre Avg 4.17, p=1.1E-4) was found to be 1.17. Besides, the “von Frey F 4.93 # ST[…]-ANALGESIC” value in the test on rat pain model variants [3] (Ethosuximide 100 mg/kg IP, 1 rat saphenous n. with Avitene collagen, pre 4) was 0; with rat pain model variants [3] (setting [7]) it was 0; in the test with rat pain model variants [3] (setting [8]), 0; in the test on rat pain model variants [3] (Ethosuximide 100 mg/kg IP, single rats sciatic n. with Alginate hydrogel (two rats, pre 3 and 6)), 0. Also, the “von Frey F 4.93 # ST[…]-ANALGESIC, Total” value in the test on rat pain model variants [3] (Ethosuximide 100 mg/kg IP, total of 5 rats, pre total 25, pre vs post p=1.43E-3) is 0. The “Post Avg, Average Positive stimulations out of 6 total, Stim A vF 4.56” value with rat pain model variants [3] (Ethosuximide 200 mg/kg (IP), all rats of Tables 8-10, n=12, Pre Avg 1.83, p=2.9E-3) amounted to 0.5. The “Post Avg, Average Positive stimulations out of 6 total, Stim B vF 4.93” value in the test on rat pain model variants [3] (Ethosuximide 200 mg/kg (IP), n=12 rats, Pre Avg 2.92, p=8.4E-5) was determined as 0.58. Also, the “Post Avg, Average Positive stimulations out of 6 total, Stim C vF 5.07” value with rat pain model variants [3] (Ethosuximide 200 mg/kg (IP), n=12 rats, Pre Avg 3.92, p=1.4E-5) was 0.83. Further, the “analgesic effect (significance)” value with rat pain model variants [4] (ethosuximide 200 mg/kg IP, Table 12, within 40-80 minutes) was “significant analgesic effects”.

Regarding `O=C(c1ccccc1)c1ccc2n1CCC2C(=O)O` (stereo not drawn) [Ketorolac, ketorolac], the “Pinprick # STIMULATIONS POST-ANALGESIC” value with rat pain model variants [1] (Ketorolac 10% 0.1 cc IP, 1 rat peroneal n. with Avitene collagen, pre 6) is 6; in the test with rat pain model variants [1] (Ketorolac 10% 0.1 cc IP, 1 rat tibial n. with Acemannan hydrogel, pre 6), 6; with rat pain model variants [1] (Ketorolac 10% 0.1 cc IP, 1 rat tibial n. with Alginate hydrogel, pre 6) it was 6; with rat pain model variants [1] (Ketorolac 10% 0.1 cc IP, single rats sciatic n. with Alginate hydrogel (two rats, pre 6 and 6)), 5 and 6. Also, the “Pinprick # STIMULATIONS POST-ANALGESIC, Total” value with rat pain model variants [1] (Ketorolac 10% 0.1 cc IP, pre vs post p=3.7E-1) worked out at 29. The “analgesic effect (significance)” value with rat pain model variants [4] (ketorolac 10% 0.1 cc IP, Table 7) is “no significant analgesic effect; also recorded: no significant analgesic properties”.

Regarding `NCC1(CC(=O)O)CCCCC1` [gabapentin], the analgesic response entry in test [5] was “exhibited an analgesic response”. The “Post Avg, Average Positive stimulations out of 6 total, Stim PP Pin Prick” value in the test on rat pain model variants [1] (Gabapentin 50 mg/kg (IP), Pre Avg 5.08, p=2.6E-5) came to 2.25. Further, the “Average # Paw Withdrawals” value in test [6] (gabapentin 25 mg/kg IP, post procedure day 58 (9.14 before dose)) was 6.86; in test [6] (gabapentin 40 mg/kg IP, post procedure day 65 (9.19 before dose)) it was 5.81. Moreover, the “Analgesic response (mechanical allodynia)” value in test [6] (gabapentin 25 or 40 mg/kg IP) is listed as “Analgesic responses were shown”. Further, the “Post Avg, Average Positive stimulations out of 6 total, Stim S Brush” value with rat pain model variants [2] (Gabapentin 50 mg/kg (IP), Pre Avg 3.25, p=9.5E-4) is on record as 1.25. The “Post Avg, Average Positive stimulations out of 6 total, Stim A vF 4.56” value in the test on rat pain model variants [3] (Gabapentin 50 mg/kg (IP), n=12 rats, Pre Avg 2.0, p=8.5E-5) stood at 0.25. Besides, in the test on rat pain model variants [3] (Gabapentin 50 mg/kg (IP), n=12 rats, Pre Avg 2.42, p=4.4E-4), the “Post Avg, Average Positive stimulations out of 6 total, Stim C vF 5.07” value is given as 0.75. Besides, in the test on rat pain model variants [3] (Gabapentin 50 mg/kg (IP), n=12 rats, Pre Avg 2.58, p=5.8E-5), the “Post Avg, Average Positive stimulations out of 6 total, Stim B vF 4.93” value came out at 0.5. Also, the “analgesic effect (significance)” value in the test with rat pain model variants [4] (gabapentin 50 mg/kg IP, Table 12, within 40-80 minutes) is “significant analgesic effects”; in the test with rat pain model variants [4] (gabapentin 50 mg/kg IP, Table 12, within 40-80 minutes, listed as Gabapentin), “significant analgesic effect”.
